This is an account of results in paper PMC11875992 (Cancer research, 2025).

One experiment deals with KRAS G13D (Homo sapiens, UniProt P01116, G13D). Kind of experiment: cellular thermal stability assay in HCT-116 lysates, western blot. Type of experiment: biochemical. In general terms: Immunoblotting shows a protein as a band on a membrane.
The target in a further experiment is KRAS G12C (Homo sapiens, UniProt P01116, G12C). The experiment is described as follows: cellular thermal stability assay. The experiment is classed as cell-based.
Chain of KRAS G12C (P01116 2-186 G12C): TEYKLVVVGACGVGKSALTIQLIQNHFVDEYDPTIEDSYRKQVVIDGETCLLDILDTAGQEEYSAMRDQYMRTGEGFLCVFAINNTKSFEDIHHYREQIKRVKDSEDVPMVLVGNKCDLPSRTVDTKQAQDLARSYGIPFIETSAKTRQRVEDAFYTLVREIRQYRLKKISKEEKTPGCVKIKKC

Structures are written as SMILES.

Chain of KRAS G13D (P01116 2-186 G13D): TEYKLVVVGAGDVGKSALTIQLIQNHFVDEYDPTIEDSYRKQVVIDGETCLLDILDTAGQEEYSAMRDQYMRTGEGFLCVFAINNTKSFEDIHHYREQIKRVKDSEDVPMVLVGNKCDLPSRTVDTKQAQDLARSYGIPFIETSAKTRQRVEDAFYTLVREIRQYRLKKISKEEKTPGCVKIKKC

As to `COc1cc(/C=C2/C(C)=C(CC(=O)NCc3ccco3)c3cc(F)ccc32)cc(OC)c1O` [ADT-007, (Z)-2-(5-fluoro-1-(4-hydroxy-3,5-dimethoxybenzylidene)-2-methyl-1H-inden-3-yl)-N-(furan-2-ylmethyl)acetamide], the EC50 (usually the concentration needed to bring the measured effect to its halfway point) at KRAS G13D stood at 0.45 nM; at KRAS G12C it was 8.49 nM.
